Assay results from US11840528B2 (Hoffmann-La Roche Inc., priority 2018, dated 2023).

What was measured:
h-GABA-A α5β3γ2 [1] = target: T1, h-GABA-A α5β3γ2 (Homo sapiens, UniProt P18507+P31644); experiment: Two-electrode voltage clamp electrophysiology in Xenopus laevis oocytes expressing GABAA receptors, modulation of GABA EC20 current; assay type: cell-based; design: host or cells: Xenopus laevis oocytes micro-injected with RNA transcripts of the subunits; details: Table 1; for Efficacy (GABA) %: % modulation of GABA EC20 = 100*(Fold increase-1); for Fold increase h-GABA-A α5β3γ2 oocyte: test compound at approx. 30 fold its Ki, GABA at EC20
How it was run: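 Human α5β3γ2 GABAA receptors were expressed in Xenopus oocytes by RNA injection, with γ2 RNA 5–10-fold higher, and recorded 3–5 days later by two-electrode voltage clamp at −80 mV at room temperature. The test compound, at about 30× its Ki, was co-applied during a second GABA EC20 pulse. Efficacy is the extremum of the point-by-point ratio to the first response, expressed as 100*(Fold increase−1).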

h-GABA-A α5β3γ2 [2] = target: T1, h-GABA-A α5β3γ2; experiment: [3H]flumazenil competition binding assay, membranes of HEK293 cells expressing GABAA receptors; details: displacement of [3H]-Flumazenil 0.5 nM, HEK293 cells expressing human receptors, mean of two determinations; Table 1
How it was run: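 Membranes from HEK293 cells transiently expressing human α5β3γ2 GABAA receptors, in Krebs-tris buffer pH 7.5, competed against [3H]flumazenil for 1 hour at 4° C to equilibrium. Bound radioactivity collected on GF/C filters and counted by liquid scintillation; Ki values are means of two determinations.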

| Compound | Efficacy (GABA) % (h-GABA-A α5β3γ2 [1]) | Fold increase h-GABA-A α5β3γ2 oocyte (h-GABA-A α5β3γ2 [1]) | Ki (h-GABA-A α5β3γ2 [2]) |
| --- | --- | --- | --- |
| Cc1ncc(-c2noc(C)c2Cn2ncc(N(C)C)cc2=O)cc1F [Example 102, 5-(dimethylamino)-2-[[3-(5-fluoro-6-methyl-3-pyridyl)-5-methyl-isoxazol-4-yl]methyl]pyridazin-3-one] | 86% | 1.86 | 13.1 nM |
| Cc1ccc(-c2noc(C)c2Cn2ncc(-c3cnn(C)c3)cc2=O)cn1 [Example 103, 2-((5-methyl-3-(6-methyl-3-pyridyl)isoxazol-4-yl)methyl)-5-(1-methylpyrazol-4-yl)pyridazin-3-one] | 141% | 2.41 | 29.7 nM |
| COC1CN(c2cnn(Cc3c(-c4ccc(C)nc4)noc3C)c(=O)c2)C1 [Example 104, 5-(3-methoxyazetidin-1-yl)-2-[[5-methyl-3-(6-methyl-3-pyridyl)isoxazol-4-yl]methyl]pyridazin-3-one] | 134% | 2.34 | 22.9 nM |
| Cc1ccc(-c2noc(C)c2Cn2ncc(N3CC(O)C3)cc2=O)cn1 [Example 105, 5-(3-hydroxyazetidin-1-yl)-2-[[5-methyl-3-(6-methyl-3-pyridyl)isoxazol-4-yl]methyl]pyridazin-3-one] | 72% | 1.72 | 6 nM |
| Cc1ccc(-c2noc(C)c2Cn2ncc(-c3ccnc(C)c3)cc2=O)cn1 [Example 106, 2-((5-methyl-3-(6-methylpyridin-3-yl)isoxazol-4-yl)methyl)-5-(2-methylpyridin-4-yl)pyridazin-3(2H)-one] | 136% | 2.36 | 6.2 nM |
| COc1cc(-c2cnn(Cc3c(-c4ccc(C)nc4)noc3C)c(=O)c2)ccn1 [Example 107, 5-(2-methoxypyridin-4-yl)-2-((5-methyl-3-(6-methylpyridin-3-yl)isoxazol-4-yl)methyl)pyridazin-3(2H)-one] | 70% | 1.7 | 3.8 nM |
| Cc1ccc(-c2noc(C)c2Cn2ncc(-c3ccnc(C(F)(F)F)c3)cc2=O)cn1 [Example 108, 2-((5-methyl-3-(6-methylpyridin-3-yl)isoxazol-4-yl)methyl)-5-(2-(trifluoromethyl)pyridin-4-yl)pyridazin-3(2H)-one] | 104% | 2.04 | 11.4 nM |
| CCc1nccn1C1CCN(c2cnn(Cc3c(-c4ccc(C)nc4)noc3C)c(=O)c2)CC1 [Example 109, 5-[4-(2-ethylimidazol-1-yl)-1-piperidyl]-2-[[5-methyl-3-(6-methyl-3-pyridyl)isoxazol-4-yl]methyl]pyridazin-3-one] | 107% | 2.07 | 2.2 nM |
| Cc1ccc(-c2noc(C)c2Cn2ncc(N3CCC(n4ccnc4C)CC3)cc2=O)cn1 [Example 110, 5-[4-(2-methylimidazol-1-yl)-1-piperidyl]-2-[[5-methyl-3-(6-methyl-3-pyridyl)isoxazol-4-yl]methyl]pyridazin-3-one] | 142% | 2.42 | 1.2 nM |
| Cc1ccc(-c2noc(C)c2Cn2ncc(N3CC(OCC4CC4)C3)cc2=O)cn1 [Example 111, 5-[3-(cyclopropylmethoxy)azetidin-1-yl]-2-[[5-methyl-3-(6-methyl-3-pyridyl)isoxazol-4-yl]methyl]pyridazin-3-one] | 147% | 2.47 | 34.6 nM |
| Cc1ccc(-c2noc(C)c2Cn2ncc(N3CC(OC(C)C)C3)cc2=O)cn1 [Example 112, 5-(3-isopropoxyazetidin-1-yl)-2-[[5-methyl-3-(6-methyl-3-pyridyl)isoxazol-4-yl]methyl]pyridazin-3-one] | 101% | 2.01 | 38 nM |
| COc1ccc(-c2cnn(Cc3c(-c4ccc(C)nc4)noc3C)c(=O)c2)cc1OC [Example 113, 5-(3,4-dimethoxyphenyl)-2-((5-methyl-3-(6-methyl-3-pyridyl)isoxazol-4-yl)methyl)pyridazin-3-one] | 91% | 1.91 | 7.8 nM |
| Cc1ccc(-c2noc(C)c2Cn2ncc(-c3ccc(OC(F)(F)F)cc3)cc2=O)cn1 [Example 114, 2-((5-methyl-3-(6-methyl-3-pyridyl)isoxazol-4-yl)methyl)-5-(4-(trifluoromethoxy)phenyl)pyridazin-3-one] | 81% | 1.81 | 24 nM |
| Cc1ccc(-c2noc(C)c2Cn2ncc(-c3ccc(OC(C)C)cc3)cc2=O)cn1 [Example 115, 5-(4-isopropoxyphenyl)-2-((5-methyl-3-(6-methyl-3-pyridyl)isoxazol-4-yl)methyl)pyridazin-3-one] | 87% | 1.87 | 10.4 nM |
| Cc1ccc(-c2noc(C)c2Cn2ncc(-c3ccc(N(C)C)nc3)cc2=O)cn1 [Example 116, 5-[6-(dimethylamino)-3-pyridyl]-2-((5-methyl-3-(6-methyl-3-pyridyl)isoxazol-4-yl)methyl)pyridazin-3-one] | 84% | 1.84 | 30.8 nM |
| Cc1ccc(-c2noc(C)c2Cn2ncc(N3CC(O)(C(F)(F)F)C3)cc2=O)cn1 [Example 117, 5-(3-hydroxy-3-(trifluoromethyl)azetidin-1-yl)-2-((5-methyl-3-(6-methylpyridin-3-yl)isoxazol-4-yl)methyl)pyridazin-3(2H)-one] | 226% | 3.26 | 4.1 nM |
| Cc1ccc(-c2noc(C)c2Cn2ncc(N3CCC(C)(O)C3)cc2=O)cn1 (stereo not drawn) [Example 118, 5-(3-hydroxy-3-methylpyrrolidin-1-yl)-2-((5-methyl-3-(6-methylpyridin-3-yl)isoxazol-4-yl)methyl)pyridazin-3(2H)-one] | 210% | 3.1 | 9.2 nM |
| Cc1ccc(-c2noc(C)c2Cn2ncc(N3CCC(C)(O)CC3)cc2=O)cn1 [Example 119, 5-(4-hydroxy-4-methylpiperidin-1-yl)-2-((5-methyl-3-(6-methylpyridin-3-yl)isoxazol-4-yl)methyl)pyridazin-3(2H)-one] | 138% | 2.38 | 2.6 nM |
